Experimental data published in patent publication US20120065228A1, “COMPOSITIONS AND METHODS FOR TREATING, CONTROLLING, REDUCING, OR AMELIORATING OCULAR INFLAMMATORY WITH LOWER RISK OF INCREASED INTRAOCULAR PRESSURE” (priority 2007, published 2012).

Tested on: inflammation following cataract surgery
Assay: Clinical dose ranging study after cataract surgery: resolution of anterior chamber (AC) cells and flare
Format: in vivo, human
From the text: There were 8 treatment groups in this study, consisting of three drug doses, vehicle and three dosing frequencies (see also Table 4-1): • Group A: 1% BOL-303242-X ophthalmic suspension, two times per day (BID) • Group B: 2% BOL-303242-X ophthalmic suspension, one time per day (QD) • Group C: 2% BOL-303242-X ophthalmic suspension, BID • Group D: 2% BOL-303242-X ophthalmic suspension, four times per day (QID) • Group E: 3% BOL-303242-X ophthalmic suspension, QD • Group F: 3% BOL-303242-X ophthalmic suspension, BID • Group G: 3% BOL-303242-X ophthalmic suspension, QID • Group H: Vehicle for BOL-303242-X (divided equally into QID, BID, and QD)
At Visit 3 (postoperative Day 1, 18 to 34 hours following surgery), subjects meeting all eligibility criteria were randomized to one of the treatment groups continuing to be studied, including vehicle, in a 1:1 ratio.
Subjects self-administered study drug, instilling 1 to 2 drops of study drug into the study eye: QID at approximately 4 hour intervals, BID at approximately 12 hour intervals, or QD once in the morning, for 14 days. The initial dose occurred in the clinic at Visit 3 and the final dose was on the day before Visit 6 (postoperative Day 15±1 day). Subjects were examined and evaluated according to the following schedule:
Visit 1 (screening), Visit 2 (cataract surgery), Visit 3 (postoperative Day 1), Visit 4 (postoperative Day 3±1 day), Visit 5 (postoperative Day 8±1 day), Visit 6 (postoperative Day 15±1 day), Visit 7 (postoperative Day 18±1 day). Subject assessments included adverse events (AEs), concomitant medications, ocular symptoms, pinholed Snellen visual acuity (VA), intraocular pressure (IOP), ocular signs (biomicroscopy), fundoscopy, and study drug drop sensation. In addition, subject diaries were collected and reviewed for accuracy and treatment compliance.
Among other criteria for inclusion in this study, subjects were those who: • were to be at least 18 years of age on the date the informed consent form (“ICF”) was signed and with the capacity to voluntarily provide consent; • were candidates for routine, uncomplicated cataract surgery (phacoemulsification with posterior chamber intraocular lens (“IOL”) implantation, not combined with any other surgery) in the study eye; • in the Investigator's opinion, had potential postoperative pinholed Snellen visual acuity (“VA”) of at least 20/200 or pinholed Decimal VA of 0.1 in the study eye; • had undergone routine, uncomplicated cataract surgery (phacoemulsification with posterior chamber IOL implantation, not combined with any other surgery) in the study eye; and • had ≧Grade 2 anterior chamber (“AC”) cells in the study eye.
Primary Efficacy: The primary efficacy endpoint for this study was the proportion of subjects with complete resolution of AC cells at Visit 5 (postoperative Day 8). Complete resolution of AC cells is defined as Grade 0 cells.
Secondary Efficacy: The secondary efficacy endpoints for this study were the proportions of subjects with Grade 0 pain at Visit 5 (postoperative Day 8) and at each visit, complete resolution of AC cells at each visit, complete resolution of AC cells and flare at each visit, complete resolution of AC flare at each visit, change from baseline to each follow-up visit in AC cells and AC flare combined and separately, ocular symptoms.

[1] = 1% BID, Visit 5 (postoperative Day 8)
[2] = 1% BID, Visit 7 (postoperative Day 18)
[3] = 2% QD, Visit 5 (postoperative Day 8)
[4] = 2% QID, Visit 5 (postoperative Day 8)
[5] = 2% QID, Visit 6 (postoperative Day 15)
[6] = 2% QID, Visit 7 (postoperative Day 18)
[7] = 3% BID, Visit 5 (postoperative Day 8)
[8] = 3% BID, Visit 6 (postoperative Day 15)
[9] = 3% BID, Visit 7 (postoperative Day 18)
[10] = 3% QD, Visit 5 (postoperative Day 8)
[11] = 3% QD, Visit 6 (postoperative Day 15)
[12] = 3% QD, Visit 7 (postoperative Day 18)

## Cc1ccc2c(NCC(O)(CC(C)(C)c3cc(F)cc4c3OCC4)C(F)(F)F)cccc2n1 (stereo not drawn) [BOL-303242-X]
1% BID (printed 196 BID), Visit 7 (postoperative Day 18)
  Proportion of subjects with complete resolution of AC flare: 56.7%
[1]
  Proportion of subjects with complete resolution of AC cells: 21.7%
  Proportion of subjects with complete resolution of AC cells and flare combined: 20.0%
  Proportion of subjects with complete resolution of AC flare: 41.7%
1% BID, Visit 6 (postoperative Day 15)
  Proportion of subjects with complete resolution of AC flare: 66.7%
[2]
  Proportion of subjects with complete resolution of AC cells: 41.7%
  Proportion of subjects with complete resolution of AC cells and flare combined: 41.7%
2% BID, Visit 5 (postoperative Day 8)
  Proportion of subjects with complete resolution of AC flare: 50.0%
2% BID, Visit 6 (postoperative Day 15)
  Proportion of subjects with complete resolution of AC flare: 60.7%
[3]
  Proportion of subjects with complete resolution of AC cells: 21.4%
  Proportion of subjects with complete resolution of AC cells and flare combined: 21.4%
  Proportion of subjects with complete resolution of AC flare: 42.9%
2% QD, Visit 6 (postoperative Day 15)
  Proportion of subjects with complete resolution of AC cells and flare combined: 35.7%
2% QID (printed 2% ND), Visit 6 (postoperative Day 15)
  Proportion of subjects with complete resolution of AC flare: 66.7%
[4]
  Proportion of subjects with complete resolution of AC cells: 28.3%
  Proportion of subjects with complete resolution of AC cells and flare combined: 26.7%
  Proportion of subjects with complete resolution of AC flare: 51.7%
[5]
  Proportion of subjects with complete resolution of AC cells: 43.3%
  Proportion of subjects with complete resolution of AC cells and flare combined: 41.7%
[6]
  Proportion of subjects with complete resolution of AC cells: 53.396%
  Proportion of subjects with complete resolution of AC cells and flare combined: 53.3%
  Proportion of subjects with complete resolution of AC flare: 66.7%
3% BID, Visit 4 (postoperative Day 3)
  Proportion of subjects with complete resolution of AC flare: 38.3%
[7]
  Proportion of subjects with complete resolution of AC cells: 25.0%
  Proportion of subjects with complete resolution of AC cells and flare combined: 23.3%
  Proportion of subjects with complete resolution of AC flare: 51.7%
[8]
  Proportion of subjects with complete resolution of AC cells: 38.3%
  Proportion of subjects with complete resolution of AC cells and flare combined: 38.3%
  Proportion of subjects with complete resolution of AC flare: 51.7%
[9]
  Proportion of subjects with complete resolution of AC cells: 43.3%
  Proportion of subjects with complete resolution of AC cells and flare combined: 43.3%
  Proportion of subjects with complete resolution of AC flare: 56.7%
3% QD, Visit 4 (postoperative Day 3)
  Proportion of subjects with complete resolution of AC flare: 35.6%
[10]
  Proportion of subjects with complete resolution of AC cells: 25.4%
  Proportion of subjects with complete resolution of AC cells and flare combined: 23.7%
  Proportion of subjects with complete resolution of AC flare: 55.9%
[11]
  Proportion of subjects with complete resolution of AC cells: 47.5%
  Proportion of subjects with complete resolution of AC cells and flare combined: 47.5%
  Proportion of subjects with complete resolution of AC flare: 66.1%
[12]
  Proportion of subjects with complete resolution of AC cells: 47.5%
  Proportion of subjects with complete resolution of AC cells and flare combined: 47.5%
  Proportion of subjects with complete resolution of AC flare: 57.6%
